Like-named read-outs stand apart in the source and are kept apart here.
How the values were obtained:
[1] = test system: intracellular MDR S. Typhimurium (ATCC 700408); test: Intracellular gentamicin protection assay, MDR S. Typhimurium in RAW 264.7 macrophages; format: cell-based, Salmonella enterica serovar Typhimurium; settings: for IC50: Salmonella enterica, RAW264.7, Table 2, intracellular burden 50% in RAW 264.7; for MDR Selectivity: Table 2, LC50 / IC50; for difference of IC50 between susceptible and MDR S. Typhimurium: defined as 2-fold difference MDR IC50 / Susc IC50
Experimental: (§1) RAW 264.7 cells were seeded at 3×10^4 cells/well in a 96-well plate and maintained at 37°C for 20 hours. A single colony of susceptible or MDR S. Typhimurium was inoculated and cultured overnight in nutrient broth and diluted to obtain a log-phase culture stock with an adjusted optical density (OD600) of 0.6, equivalent to a concentration of 3×10^8 CFU/mL (determined by a prior colony forming units (CFU) assay). The bacterial stock solution was resuspended in antibiotic-free DMEM supplemented with 2% FBS and further diluted to obtain a bacterial concentration of 3×10^6 CFU/mL. Cell media was aspirated and replaced with 100 μL of bacteria culture in DMEM resulting in a multiplicity of infection (MOI) of 10. The cells underwent infection for two hours or 30 minutes at 37°C with susceptible or MDR bacteria, respectively. This differential infection incubation period was based on strain-specific infectivity potential. […] Media was aspirated from the wells and replaced with DMEM (2% FBS) containing 100 μg/mL gentamicin for one hour at 37°C to eliminate extracellular bacteria. Following this step, cells were washed once with media and treated for 22 hours with analogs at varying concentrations (0.1 – 5 μM) in DMEM (2% FBS, no pen/strep) containing 10 μg/mL gentamicin to suppress extracellular bacterial growth. AR-12 treated, uninfected, and DMSO-vehicle treated cells were included as controls. Post treatment, cells were washed with PBS and lysed with 0.1% Triton-X100, a concentration sufficient to disrupt host cells while preserving bacterial integrity. The lysates containing intracellular bacteria were serially diluted and enumerated by using drop-plate assay as described previously.([27]) Agar plates were incubated overnight at 37°C before CFU from each dilution were counted.
Supplemental Figure 2: Evaluating lead compound efficacy against MDR S. Typhimurium. A) Schematic illustrating gentamicin protection assay. Day 0 RAW 264.7 macrophages are seeded into 96-well plate and STM culture is inoculated. Day 1: RAW 264.7 cells are infected with STM at an MOI of 10 for 30 min, washed, then treated with gentamicin for 1hr to remove extracellular bacteria. AR-12 analogs added to infected cells for 22hr incubation. Day 2: RAWs are washed, lysed, diluted and then dropped onto agar plates. Day 3: colony forming units (CFUs) counted. B) Dose effect curves of intracellular MDR S. Typhimurium viability from RAW 264.7 macrophages after 22hr treatment with hit compounds. CFUs normalized to untreated controls. Parental compound AR-12 included for comparison.

[2] = in vitro; format: cell-based
Experimental: Cell proliferation and viability in the presence of the analogs was tested in the macrophage cell line RAW 264.7 using a 3-(4,5-dimethylthiazol-2-yl)-2,5-diphenyl-2H-tetrazolium bromide (MTT) assay. Cells were seeded at 3×10^4 cells/well in 96 well plates in DMEM (10% FBS, 1% pen/strep). […] DMSO vehicle was utilized as a control, as all the drugs were reconstituted from DMSO stocks. After 24 hr treatment, media was replaced with 100 μL of 0.6 mg/mL MTT solution and the cells were incubated at 37°C until formazan crystals formed. The MTT solution was then replaced with 100 μL of isopropanol, to dissolve the formazan crystals. Cell viability was determined by measuring absorbance at 560 nm of drug treated cells normalized to DMSO vehicle controls. The absorbance at 670 nm was used as a background correction. Cell viability was plotted against increasing drug concentration to obtain the 50% lethal concentration (LC50), defined as the drug concentration resulting in 50% cell viability.

[3] = test system: intracellular susceptible S. Typhimurium (ATCC 700720); test: Intracellular gentamicin protection assay, susceptible S. Typhimurium in RAW 264.7 macrophages; format: cell-based, Salmonella enterica serovar Typhimurium; settings: for selectivity (selectivity indices): LC50 / IC50, strain not specified; for IC50: Salmonella enterica; for Selectivity: LC50 / IC50, susceptible S. Typhimurium
Experimental: as §1

[4] = test system: planktonic MDR S. Typhimurium (ATCC 700408); test: Direct effect on planktonic MDR bacteria (optical density 600 nm); format: cell-based, Salmonella enterica serovar Typhimurium; settings: Salmonella enterica, Table 2, OD 600 nm
Experimental: (§2) A single colony of susceptible or MDR bacteria was inoculated into nutrient broth and incubated overnight at 37°C in an orbital shaker set at 200 rpm. The overnight culture was sub-cultured (1:100) in fresh medium to obtain log-phase bacterial growth after an additional 3 hr incubation at 37°C and further adjusted to obtain a bacterial stock solution with an absorbance value of 0.6 at 600 nm, equivalent to a concentration of 3×10^8 CFU/mL. The bacterial stock was diluted with nutrient broth to obtain 3×10^4 CFU/well in a 96 well plate. Next, 10 μL of each analog were added to yield a total volume of 100 μL /well with a final concentration of 20 μM. Drug-free and bacteria-free wells were used as controls. The plate was incubated at 37°C for 22 hr. Percent bacterial viability was determined using optical density measurements at 600 nm, subtracting out bacteria free absorbance (background) and normalizing to a DMSO vehicle control. Bacterial viability was plotted against increasing drug concentration to obtain the 50% minimum inhibitory concentration (MIC50), defined as the drug concentration resulting in 50% bacterial viability.

[5] = test system: planktonic susceptible S. Typhimurium (ATCC 700720); test: Direct effect on planktonic susceptible bacteria (optical density 600 nm); format: cell-based, Salmonella enterica serovar Typhimurium; settings: Salmonella enterica
Experimental: as §2

[6] = RAW264.7, 22 h, Table 1, concentration at which intracellular susceptible S. Typhimurium burden is 50% in RAW 264.7 macrophages, 22 h treatment, read-out: IC50
[7] = RAW264.7, Table 2, intracellular burden 50% in RAW 264.7, read-out: Susc. IC50
[8] = Table 1, planktonic susceptible S. Typhimurium viability 50% by optical density, 22 hr, read-out: MIC50
[9] = Table 2, planktonic Salmonella, OD 600 nm, read-out: Susc. MIC50

Row | SMILES | IC50 [1] [nM] | MDR Selectivity [1] | CC50 at 24 h ([2]; Table 1, RAW 264.7 viability reduced by 50%, MTT assay, 24 hr, 1–100 μM, read-out: LC50) [nM] | CC50 at 24 h ([2]; Table 2, RAW 264.7 viability 50%, colorimetric assay, extended up to 500 μM, read-out: LC50) [nM] | selectivity (selectivity indices) [3] | IC50 [3, 6] [nM] | IC50 [3, 7] [nM] | Selectivity ([3]; Table 1) | MIC50 [4] [µM] | MIC50 [5, 8] [µM] | MIC50 [5, 9] [µM] | CC50 at 24 h ([2]; mouse, LC50) [nM] | difference of IC50 between susceptible and MDR S. Typhimurium [1] | improvement in selectivity over AR-12 [3]
1 | NCC(=O)Nc1ccc(-n2nc(C(F)(F)F)cc2-c2ccc3c(ccc4ccccc43)c2)cc1 [AR-12, reference compound] | 340 | 24.4 | 8000 | 8300 | around 20 | 420 | 400 | 19.8 | > 20 | > 20 | > 20 | – | – | –
2 | Fc1cccc(CN2CCC(Nc3ccc(-n4nc(C(F)(F)F)cc4C4CCCCC4)cc3)CC2)c1 [Compound 322] | 120 | 372 | – | – | – | 140 | 140 | 324 | > 20 | > 20 | > 20 | 43700 | – | –
3 | N#Cc1ccc(CN2CCC(Nc3ccc(-n4nc(C(F)(F)F)cc4C4CCCCC4)cc3)CC2)cc1 [Compound 323] | 200 | 160 | – | – | – | 100 | 100 | 333 | > 20 | > 20 | > 20 | 32000 | strongly different | –
4 | NC1CCN(c2ccc(-n3nc(C(F)(F)F)cc3C3CCCCC3)cc2)CC1 [Compound 324] | 160 | 118 | – | – | – | 80 | 80 | 244 | > 20 | > 20 | > 20 | 18800 | strongly different | –
5 | NCC(=O)Nc1ccc(-n2nc(C(F)(F)F)cc2C2CCCCC2)cc1 [Compound 341] | 100 | 318 | – | – | – | 80 | 80 | 398 | > 20 | > 20 | > 20 | 31800 | – | –
6 | FC(F)(F)c1cc(C2CCCCC2)n(-c2ccc(N3CCC(NCc4ccccc4)C3)cc2)n1 (centres unmarked) [Compound 364] | 120 | 291 | – | – | – | 130 | 130 | 269 | > 20 | > 20 | > 20 | 35000 | – | –
7 | N#Cc1ccc(CNC2CCN(c3ccc(-n4nc(C(F)(F)F)cc4C4CCCCC4)cc3)C2)cc1 (centres unmarked) [Compound 365] | 370 | 115 | – | – | – | 150 | 150 | 285 | > 20 | > 20 | > 20 | 42700 | strongly different | –
8 | FC(F)(F)c1cc(C2CCCCC2)n(-c2ccc(OC3CCNCC3)cc2)n1 [Compound 370] | 60 | 269 | – | – | – | 80 | 80 | 229 | > 20 | > 20 | > 20 | 17200 | – | –
9 | FC(F)(F)c1cc(C2CCCCC2)n(-c2ccc(OC3CCN(Cc4ccccc4)CC3)cc2)n1 [Compound 371] | 110 | 790 | – | – | – | 140 | 140 | 644 | > 20 | > 20 | > 20 | 90200 | – | –
10 | Fc1cccc(CN2CCC(Oc3ccc(-n4nc(C(F)(F)F)cc4C4CCCCC4)cc3)CC2)c1 [Compound 372] | 170 | – | – | – | > 2000 | 130 | ~130 | >769 | > 20 | > 20 | > 20 | – | – | –
11 | N#Cc1ccc(CN2CCC(Oc3ccc(-n4nc(C(F)(F)F)cc4C4CCCCC4)cc3)CC2)cc1 [Compound 373] | ~130 | – | – | – | > 2000 | 130 | ~130 | >769 | > 20 | > 20 | > 20 | – | – | –
12 | FC(F)(F)c1cc(C2CCCCC2)n(-c2ccc(OC3CCN(Cc4ccccc4)C3)cc2)n1 (centres unmarked) [Compound 378] | 180 | – | – | – | – | 310 | 310 | >322 | > 20 | > 20 | > 20 | – | – | approximately 100 fold

From doi:10.64898/2025.12.30.696991 (bioRxiv, 2026)
